Assay results reported in patent US20240025884A1 (Dong-A ST Co., Ltd., priority 2022, published 2024).

Target: GCN2 (Homo sapiens (Human), UniProt Q9P2K8)
Assay: GCN2 Biochemical Assay (TR-FRET, GFP-eIF2S1 substrate phosphorylation)
Settings: read-out: IC50 (GCN2 Inhibitory Activity)
Outline: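 TR-FRET readout (Ex 340, Em 490/520 nm) after 2–3 h with Tb-labelled phospho-eIF2S1 antibody in stop mix, following a 70 min room-temperature kinase step. Reaction: in-house GCN2, GFP-eIF2S1, ATP, tRNA in Tris pH 7.5 (2× stocks 1.6 nM, 50 nM, 0.2 mM); compounds tested at 10 concentrations, with a phospho-substrate artifact counter-plate.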

GCN2, sequence (Q9P2K8 whole entry): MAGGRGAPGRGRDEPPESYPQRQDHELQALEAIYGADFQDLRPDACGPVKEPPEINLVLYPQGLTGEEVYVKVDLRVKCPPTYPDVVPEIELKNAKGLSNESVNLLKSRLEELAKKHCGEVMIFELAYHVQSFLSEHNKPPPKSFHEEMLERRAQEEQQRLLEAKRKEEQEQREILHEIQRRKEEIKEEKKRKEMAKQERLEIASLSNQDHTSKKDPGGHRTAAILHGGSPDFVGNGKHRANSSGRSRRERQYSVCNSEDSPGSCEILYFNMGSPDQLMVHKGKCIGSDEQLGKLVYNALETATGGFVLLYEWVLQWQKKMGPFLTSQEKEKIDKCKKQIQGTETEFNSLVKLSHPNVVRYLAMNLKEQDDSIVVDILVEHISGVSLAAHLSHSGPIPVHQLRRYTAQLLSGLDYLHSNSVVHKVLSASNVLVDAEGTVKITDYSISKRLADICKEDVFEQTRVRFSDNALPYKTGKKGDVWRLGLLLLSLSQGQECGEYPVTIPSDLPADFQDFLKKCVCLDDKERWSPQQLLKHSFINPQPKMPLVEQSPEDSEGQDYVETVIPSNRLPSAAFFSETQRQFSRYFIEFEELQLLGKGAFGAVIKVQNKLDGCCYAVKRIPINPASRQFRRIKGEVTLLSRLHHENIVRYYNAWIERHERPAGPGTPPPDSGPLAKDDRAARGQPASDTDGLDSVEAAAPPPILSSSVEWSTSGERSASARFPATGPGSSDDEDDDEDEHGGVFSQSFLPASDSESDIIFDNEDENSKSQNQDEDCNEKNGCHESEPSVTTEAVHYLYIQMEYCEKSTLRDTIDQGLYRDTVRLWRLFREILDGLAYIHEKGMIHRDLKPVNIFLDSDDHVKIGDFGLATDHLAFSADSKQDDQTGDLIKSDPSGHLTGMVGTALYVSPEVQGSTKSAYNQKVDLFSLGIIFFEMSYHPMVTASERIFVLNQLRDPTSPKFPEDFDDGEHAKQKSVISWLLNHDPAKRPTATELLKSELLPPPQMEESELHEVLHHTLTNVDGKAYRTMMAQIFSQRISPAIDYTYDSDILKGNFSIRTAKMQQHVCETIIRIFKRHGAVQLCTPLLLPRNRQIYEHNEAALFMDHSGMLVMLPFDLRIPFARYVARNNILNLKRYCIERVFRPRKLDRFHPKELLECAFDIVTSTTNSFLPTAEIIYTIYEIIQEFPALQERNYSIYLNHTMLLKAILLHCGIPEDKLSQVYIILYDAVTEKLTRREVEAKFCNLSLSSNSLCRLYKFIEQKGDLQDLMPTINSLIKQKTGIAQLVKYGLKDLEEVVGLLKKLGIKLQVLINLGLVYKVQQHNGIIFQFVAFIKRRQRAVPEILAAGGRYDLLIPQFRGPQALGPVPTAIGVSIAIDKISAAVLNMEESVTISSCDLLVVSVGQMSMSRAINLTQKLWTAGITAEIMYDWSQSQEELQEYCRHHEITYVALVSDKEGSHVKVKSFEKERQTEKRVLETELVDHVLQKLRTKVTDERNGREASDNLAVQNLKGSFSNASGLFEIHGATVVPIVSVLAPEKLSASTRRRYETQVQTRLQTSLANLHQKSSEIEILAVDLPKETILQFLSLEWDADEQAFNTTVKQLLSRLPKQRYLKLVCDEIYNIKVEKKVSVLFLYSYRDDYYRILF

Row | Compound | IC50
1 | Cc1cnc(Nc2cc(C)n(C)n2)nc1-c1c[nH]c2c(N3Cc4c(-c5ccnc(F)c5)ccc(F)c4C3=O)cccc12 [Example 485, 2-(3-(2-((1,5-dimethyl-1H-pyrazol-3-yl)amino)-5-methylpyrimidin-4-yl)-1H-indol-7-yl)-7-fluoro-4-(2-fluoropyridin-4-yl)isoindolin-1-one] | < 0.01 µM
2 | Cc1cncc(-c2ccc(F)c3c2CN(c2cccc4c(-c5nc(Nc6cc(C)n(C)n6)ncc5C)c[nH]c24)C3=O)c1 [Example 486, 2-(3-(2-((1,5-dimethyl-1H-pyrazol-3-yl)amino)-5-methylpyrimidin-4-yl)-1H-indol-7-yl)-7-fluoro-4-(5-methylpyridin-3-yl)isoindolin-1-one] | < 0.01 µM
3 | Cc1cnccc1-c1ccc(F)c2c1CN(c1cccc3c(-c4nc(Nc5cc(C)n(C)n5)ncc4C)c[nH]c13)C2=O [Example 487, 2-(3-(2-((1,5-dimethyl-1H-pyrazol-3-yl)amino)-5-methylpyrimidin-4-yl)-1H-indol-7-yl)-7-fluoro-4-(3-methylpyridin-4-yl)isoindolin-1-one] | < 0.01 µM
4 | Cc1cc(-c2ccc(F)c3c2CN(c2cccc4c(-c5nc(Nc6cc(C)n(C)n6)ncc5C)c[nH]c24)C3=O)cc(C)n1 [Example 488, 2-(3-(2-((1,5-dimethyl-1H-pyrazol-3-yl)amino)-5-methylpyrimidin-4-yl)-1H-indol-7-yl)-4-(2,6-dimethylpyridin-4-yl)-7-fluoroisoindolin-1-one] | < 0.01 µM
5 | Cc1cnc(Nc2cc(C)n(C)n2)nc1-c1c[nH]c2c(N3Cc4c(-c5ccncc5)ccc([N+](=O)[O-])c4C3=O)cccc12 [Example 489, 2-(3-(2-((1,5-dimethyl-1H-pyrazol-3-yl)amino)-5-methylpyrimidin-4-yl)-1H-indol-7-yl)-7-nitro-4-(pyridin-4-yl)isoindolin-1-one] | < 0.01 µM
6 | Cc1cnc(Nc2cc(C)n(C)n2)nc1-c1c[nH]c2c(N3Cc4c(-c5ccncc5)ccc(N(C)C)c4C3=O)cccc12 [Example 490, 2-(3-(2-((1,5-dimethyl-1H-pyrazol-3-yl)amino)-5-methylpyrimidin-4-yl)-1H-indol-7-yl)-7-(dimethylamino)-4-(pyridin-4-yl)isoindolin-1-one] | 0.01 to 0.1 µM
7 | CNc1ccc(-c2ccncc2)c2c1C(=O)N(c1cccc3c(-c4nc(Nc5cc(C)n(C)n5)ncc4C)c[nH]c13)C2 [Example 491, 2-(3-(2-((1,5-dimethyl-1H-pyrazol-3-yl)amino)-5-methylpyrimidin-4-yl)-1H-indol-7-yl)-7-(methylamino)-4-(pyridin-4-yl)isoindolin-1-one] | 0.1 to 1 µM
8 | Cc1cnc(Nc2cc(C)n(C)n2)nc1-c1c[nH]c2c(N3Cc4c(-c5ccccc5)ccc(I)c4C3=O)cccc12 [Example 492, 2-(3-(2-((1,5-dimethyl-1H-pyrazol-3-yl)amino)-5-methylpyrimidin-4-yl)-1H-indol-7-yl)-7-iodo-4-phenylisoindolin-1-one] | 0.1 to 1 µM
9 | Cc1cnc(Nc2cc(C)n(C)n2)nc1-c1c[nH]c2c(N3Cc4c(-c5ccccc5)ccnc4C3=O)cccc12 [Example 493, 6-(3-(2-((1,5-dimethyl-1H-pyrazol-3-yl)amino)-5-methylpyrimidin-4-yl)-1H-indol-7-yl)-4-phenyl-5,6-dihydro-7H-pyrrolo[3,4-b]pyridin-7-one] | < 0.01 µM
10 | Cc1cnc(Nc2cc(C)n(C)n2)nc1-c1c[nH]c2c(N3Cc4c(-c5ccncc5)ccnc4C3=O)cccc12 [Example 494, 6-(3-(2-((1,5-dimethyl-1H-pyrazol-3-yl)amino)-5-methylpyrimidin-4-yl)-1H-indol-7-yl)-4-(pyridin-4-yl)-5,6-dihydro-7H-pyrrolo[3,4-b]pyridin-7-one] | < 0.01 µM
11 | Cc1cnc(Nc2cc(C)n(C)n2)nc1-c1c[nH]c2c(N3Cc4c(-c5cccnc5)ccnc4C3=O)cccc12 [Example 495, 6-(3-(2-((1,5-dimethyl-1H-pyrazol-3-yl)amino)-5-methylpyrimidin-4-yl)-1H-indol-7-yl)-4-(pyridin-3-yl)-5,6-dihydro-7H-pyrrolo[3,4-b]pyridin-7-one] | < 0.01 µM
12 | Cc1cnc(Nc2cc(C)n(C)n2)nc1-c1c[nH]c2c(N3Cc4c(C5=CCNCC5)ccnc4C3=O)cccc12 [Example 496, 6-(3-(2-((1,5-dimethyl-1H-pyrazol-3-yl)amino)-5-methylpyrimidin-4-yl)-1H-indol-7-yl)-4-(1,2,3,6-tetrahydropyridin-4-yl)-5,6-dihydro-7H-pyrrolo[3,4-b]pyridin-7-one] | < 0.01 µM
13 | Cc1cnc(Nc2cc(C)n(C)n2)nc1-c1c[nH]c2c(N3Cc4cc(-c5ccncc5)cnc4C3=O)cccc12 [Example 497, 6-(3-(2-((1,5-dimethyl-1H-pyrazol-3-yl)amino)-5-methylpyrimidin-4-yl)-1H-indol-7-yl)-3-(pyridin-4-yl)-5,6-dihydro-7H-pyrrolo[3,4-b]pyridin-7-one] | < 0.01 µM
14 | Cc1cnc(Nc2cc(C)n(C)n2)nc1-c1c[nH]c2c(N3Cc4cc(C5=CCNCC5)cnc4C3=O)cccc12 [Example 498, 6-(3-(2-((1,5-dimethyl-1H-pyrazol-3-yl)amino)-5-methylpyrimidin-4-yl)-1H-indol-7-yl)-3-(1,2,3,6-tetrahydropyridin-4-yl)-5,6-dihydro-7H-pyrrolo[3,4-b]pyridin-7-one] | < 0.01 µM
15 | Cc1cnc(Nc2cc(C)n(C)n2)nc1-c1c[nH]c2c(N3Cc4c(cncc4C4=CCNCC4)C3=O)cccc12 [Example 499, 2-(3-(2-((1,5-dimethyl-1H-pyrazol-3-yl)amino)-5-methylpyrimidin-4-yl)-1H-indol-7-yl)-7-(1,2,3,6-tetrahydropyridin-4-yl)-1,2-dihydro-3H-pyrrolo[3,4-c]pyridin-3-one] | < 0.01 µM
16 | Cc1cnc(Nc2cc(C)n(C)n2)nc1-c1c[nH]c2c(N3Cc4c(cncc4-c4ccncc4)C3=O)cccc12 [Example 500, 2-(3-(2-((1,5-dimethyl-1H-pyrazol-3-yl)amino)-5-methylpyrimidin-4-yl)-1H-indol-7-yl)-7-(pyridin-4-yl)-1,2-dihydro-3H-pyrrolo[3,4-c]pyridin-3-one] | < 0.01 µM
17 | Cc1cnc(Nc2cc(C)n(C)n2)nc1-c1c[nH]c2c(N3Cc4c(ccnc4-c4ccncc4)C3=O)cccc12 [Example 501, 2-(3-(2-((1,5-dimethyl-1H-pyrazol-3-yl)amino)-5-methylpyrimidin-4-yl)-1H-indol-7-yl)-4-(pyridin-4-yl)-2,3-dihydro-1H-pyrrolo[3,4-c]pyridin-1-one] | < 0.01 µM
18 | Cc1cc(-c2nccc3c2CN(c2cccc4c(-c5nc(Nc6cc(C)n(C)n6)ncc5C)c[nH]c24)C3=O)ccn1 [Example 502, 2-(3-(2-((1,5-dimethyl-1H-pyrazol-3-yl)amino)-5-methylpyrimidin-4-yl)-1H-indol-7-yl)-4-(2-methylpyridin-4-yl)-2,3-dihydro-1H-pyrrolo[3,4-c]pyridin-1-one] | < 0.01 µM
19 | Cc1cnc(Nc2cc(C)n(C)n2)nc1-c1c[nH]c2c(N3Cc4c(ccnc4-c4cncc(F)c4)C3=O)cccc12 [Example 503, 2-(3-(2-((1,5-dimethyl-1H-pyrazol-3-yl)amino)-5-methylpyrimidin-4-yl)-1H-indol-7-yl)-4-(5-fluoropyridin-3-yl)-2,3-dihydro-1H-pyrrolo[3,4-c]pyridin-1-one] | < 0.01 µM
20 | Cc1cnc(Nc2cc(C)n(C)n2)nc1-c1c[nH]c2c(N3Cc4c(ccnc4-c4ccnc(F)c4)C3=O)cccc12 [Example 504, 2-(3-(2-((1,5-dimethyl-1H-pyrazol-3-yl)amino)-5-methylpyrimidin-4-yl)-1H-indol-7-yl)-4-(2-fluoropyridin-4-yl)-2,3-dihydro-1H-pyrrolo[3,4-c]pyridin-1-one] | < 0.01 µM
21 | Cc1cncc(-c2nccc3c2CN(c2cccc4c(-c5nc(Nc6cc(C)n(C)n6)ncc5C)c[nH]c24)C3=O)c1 [Example 505, 2-(3-(2-((1,5-dimethyl-1H-pyrazol-3-yl)amino)-5-methylpyrimidin-4-yl)-1H-indol-7-yl)-4-(5-methylpyridin-3-yl)-2,3-dihydro-1H-pyrrolo[3,4-c]pyridin-1-one] | < 0.01 µM
22 | Cc1cnccc1-c1nccc2c1CN(c1cccc3c(-c4nc(Nc5cc(C)n(C)n5)ncc4C)c[nH]c13)C2=O [Example 506, 2-(3-(2-((1,5-dimethyl-1H-pyrazol-3-yl)amino)-5-methylpyrimidin-4-yl)-1H-indol-7-yl)-4-(3-methylpyridin-4-yl)-2,3-dihydro-1H-pyrrolo[3,4-c]pyridin-1-one] | < 0.01 µM
